From the supplement of paper PMC10307832

How the values were obtained:
Experiment in all cases: relative viability (nuclei count vs DMSO), 5 days (fraction); higher = more cells survive
[1] = compound: C1COCCN1C2=NC(=NC3=C2OC4=C3C=CC=N4)C5=CC(=CC=C5)NC(=O)C6=CN=C(C=C6)N + N=C(N)NC(=N)NCCc1ccccc1 [Phenformin] (partner 250 µM)
How it was run: (§1)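 Lung cancer cell lines were pin-tool dosed in 1536-well plates on the day after seeding, with either a lone drug or a fixed anchor-drug dose plus five library-drug doses (not always all listed) in √10 steps. Nuclei were counted on 4× images after 5 days. Relative viability is the ratio of treated-well to vehicle-well nuclei counts, with each value a median of duplicate plates.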

[2] = compound: C1COCCN1C2=NC(=NC3=C2OC4=C3C=CC=N4)C5=CC(=CC=C5)NC(=O)C6=CN=C(C=C6)N + C[C@@H](Oc1cc(-c2cnn(C3CCNCC3)c2)cnc1N)c1c(Cl)ccc(F)c1Cl [Crizotinib] (partner 1 µM)
How it was run: as §1

Entinostat + Bortezomib = compound: Nc1ccccc1NC(=O)c1ccc(CNC(=O)OCc2cccnc2)cc1 [Entinostat] + CC(C)C[C@H](NC(=O)[C@H](Cc1ccccc1)NC(=O)c1cnccn1)B(O)O [Bortezomib] (partner 0.002 µM)
How it was run: as §1

SGI-1776 + Dasatinib = compound: CN1CCC(CNc2ccc3ncc(-c4cccc(OC(F)(F)F)c4)n3n2)CC1 [SGI-1776] + Cc1nc(Nc2ncc(C(=O)Nc3c(C)cccc3Cl)s2)cc(N2CCN(CCO)CC2)n1 [Dasatinib] (partner 0.075 µM)
How it was run: as §1

Cell Line	relative viability ([1]; first compound 0.02 µM)	relative viability ([1]; first compound 0.06325 µM)	relative viability ([1]; first compound 0.2 µM)	relative viability ([1]; first compound 0.6325 µM)	relative viability ([1]; first compound 2 µM)	relative viability ([2]; first compound 0.02 µM)	relative viability ([2]; first compound 0.06325 µM)	relative viability ([2]; first compound 0.2 µM)	relative viability ([2]; first compound 0.6325 µM)	relative viability ([2]; first compound 2 µM)	relative viability (Entinostat + Bortezomib; first compound 0.02 µM)	relative viability (Entinostat + Bortezomib; first compound 0.06325 µM)	relative viability (Entinostat + Bortezomib; first compound 0.2 µM)	relative viability (Entinostat + Bortezomib; first compound 0.6325 µM)	relative viability (Entinostat + Bortezomib; first compound 2 µM)	relative viability (SGI-1776 + Dasatinib; first compound 0.08 µM)	relative viability (SGI-1776 + Dasatinib; first compound 0.8 µM)	relative viability (SGI-1776 + Dasatinib; first compound 2.53 µM)	relative viability (SGI-1776 + Dasatinib; first compound 8 µM)
NCI-H838	0.514	0.687	0.485	0.414	0.198	0.901	0.809	0.674	0.722	0.439	0.959	1.21	0.947	0.634	0.385	0.282	0.275	0.256	0.257
NCI-H1355	0.449	0.491	0.461	0.433	0.434	0.969	1.21	1.07	1.02	0.936	1.19	1.16	0.951	0.725	0.603	0.778	0.722	0.52	0.604
NCI-H1437	0.343	0.351	0.286	0.225	0.114	0.95	1.11	0.827	0.964	0.401	0.438	0.323	0.239	0.168	0.126	0.335	0.427	0.298	0.242
NCI-H1563	0.647	0.636	0.654	0.593	0.532	0.778	0.833	0.729	0.762	0.728	0.841	0.843	0.908	0.722	0.65	0.446	0.474	0.457	0.453
NCI-H1650	0.358	0.402	0.413	0.355	0.237	1	1.05	0.94	1.06	0.601	0.194	0.226	0.2	0.214	0.214	0.372	0.292	0.208	0.171
NCI-H1651	0.333	0.302	0.315	0.321	0.182	0.835	0.894	0.854	0.865	0.671	0.958	0.923	0.921	0.926	0.84	0.535	0.378	0.381	0.312
NCI-H1666	0.577	0.608	0.473	0.567	0.442	0.743	1.08	0.82	1.03	0.619	0.855	0.694	0.741	0.441	0.321	0.822	0.791	0.75	0.711
NCI-H1734	0.372	0.387	0.371	0.338	0.251	0.73	0.731	0.612	0.636	0.345	0.895	1.1	1.06	0.753	0.472	0.55	0.426	0.441	0.434
